Test results published in patent publication US6384045B1, “Tricyclic and tetracyclic pyrones” (Kansas State University Research Foundation, priority 1997, dated 2002).
“Also recorded” adds a separate entry of the source.

Assays:
[1] = system: L1210 lymphoblastic leukemia cells; experiment: Inhibition of L1210 tumor cell growth in vitro (Coulter counter); format: cell-based, Murine; conditions: for inhibition of L1210 cell growth (% reduction of control cell numbers): 50 μM, 3 and 4 days in culture; for reduction of L1210 cell numbers vs control: 0.78 μM
Experimental: Cells were plated at an initial density of 1×10^4 cells/0.5 ml/well in RPMI 1640 medium, containing 7.5% fortified bovine calf serum, and grown at 37° C. for 4 days in a humidified incubator in 5% CO2 in air. Cells were incubated in the presence or absence (^•, control) of 50 μM 3A (▪), 2D & 2E (□),3D & 3E (▴), 2B & 2C (Δ) 2A (♦), 3B & 3C (⋄), or 10 μM CPT (∘) and their density was monitored in triplicate every 24 h using a Coulter counter. Cells numbers are plotted on a logarithmic scale.
(§1) All solutions of tricyclic pyrone analogs were dissolved and diluted in 100% ethanol (ETOH), whereas CPT (Sigma Chemical Co., St. Louis, Mo.) solutions were prepared in 100% dimethyl sulfoxide (DMSO). Murine L1210 lymphoblastic leukemia cells, obtained from the American Type Culture Collection (Rockville, Md.), were maintained in continuous exponential growth by twice-a-week passage in RPMI 1640 medium supplemented with 7.5% fortified bovine calf serum (HyClone Laboratories, Inc., Logan, Utah). The cultures were incubated at 37° C. in a humidified atmosphere containing 5% CO2. All drugs were supplemented to the culture medium in 1- or 2 μl aliquots. The concentration of vehicle in the final incubation volume never exceeded 0.2-0.4%. […] Control cells incubated in the absence of drugs were similarly treated with vehicle only and, in every experiment, all incubates received the same volume of solvent.
For tumor cell growth, L1210 cells were resuspended in fresh serum-containing RPMI 1640 medium, plated at an initial density of 1×10^4 cells/0.5 ml, and incubated in 48-well Costar cell culture plates (Costar, Cambridge, Mass.). Cells were grown for 4 days in the presence or absence of drugs and their density was monitored every 24 h using a Coulter counter (Coulter Electronics, Ltd., Luton Beds, England). Data of all in vitro experiments were analyzed using Student's t-test with the level of significance set at P<0.05.

[2] = system: L1210 lymphoblastic leukemia cells; experiment: Inhibition of DNA synthesis (3H-thymidine incorporation) in L1210 cells in vitro; format: cell-based, Murine
Experimental: FIG. 1 illustrates a comparison of the effects of four new tricyclic pyrone derivatives and CPT on DNA synthesis in L1210 cells in vitro. About 2.53×10^6 cells suspended in 0.5 ml of RPMI 1640 medium were incubated at 37° C. for 90 minutes in the presence or absence (control) of the indicated concentrations of drugs. The cells were then pulse-labeled for an additional 30 minutes to determine the rate of ^3H-thymidine incorporation into DNA. DNA synthesis in vehicle-treated control cells was 43,956±4,569 cpm (100±11%). The blank value (1,241±99 cpm) for cells pulse-labeled for 0 minutes with 1 μCi of ^3H-thymidine has been subtracted from the results. Bars: means±SD (n=3).
as §1
For DNA synthesis, L1210 cells were resuspended in fresh serum-free RPMI 1640 medium at a density of about 2.5×10^6 cells/0.5 ml. The cells were incubated at 37° C. for 90 min in the presence or absence of drugs and then pulse-labeled for an additional 30 min with 1 μCi of [methyl-^3H]thymidine (51 Ci/mmol; Amersham Corp., Arlington Heights, Ill.). The incubations were terminated by the addition of 0.5 ml of 10% trichloroacetic acid (TCA). After holding on ice for 15 min, the acid-insoluble material was recovered over Whatman GF/A glass microfibre filters and washed thrice with 2 ml of 5% TCA and twice with 2 ml of 100% EtOH. After drying the filters, the radioactivity bound to the acid-precipitable material was determined by liquid scintillation counting in 10 ml of Bio-Safe NA (Research Products International Corp., Mount Prospect, Ill.).

[3] = system: T1, liver and intestinal microsomal ACAT; experiment: Inhibition of liver and intestinal microsomal ACAT activity; format: biochemical
T1 construct: other: 100 μM; other: 44 nM; other: 50 μM
Experimental: . Microsomes were prepared from liver and intestinal mucosal scrapings by sequential centrifugation and in vitro ACAT activity assays were done according to the method of Billheimer (Billheimer, J. T. (1985), “Cholesterol acyltransferase,” In Methods in Enzymology 111:286-293). Briefly, 100 μg microsomal protein, 22 μg BSA, and 52 nmol cholesterol and the synthesized drug in 5 μL DMSO were preincubated for 30 minutes at 37° C. in a phosphate buffer (200 μL total volume). After 30 minutes, 1 nmol [^14C]oleoyl-CoA was added as substrate and incubated for an additional 20 minutes. The reaction was stopped with the addition of 1 mL ethanol and lipids were extracted with hexane. Cholesteryl [^14C]oleate formation was quantified by thin-layer chromatography and data are expressed as percent inhibition of ACAT activity (pmol/μg protein per minute) compared to a control sample incubated with no drug. All samples were run in duplicate. […]

[4] = target: acetylcholinesterase (AChE) (UniProt O42275); format: biochemical, electric eel; fetal bovine serum; conditions: read-out: AChE inhibition constant Ki ± std. error; 30° C., pH 8.0
Experimental: Acetylcholinesterase Assay and Inhibition Kinetics: Tricyclic pyrones of this invention were tested for inhibition of AChE. […] Reactions were carried out at 30° C. in 0.1 M sodium phosphate buffer at pH 8.0 in the presence of […] and 3.3×10^−4 M 3-carboxy-4-nitrophenyl disulfide. Aliquots of incubating mixtures containing enzyme alone, or enzyme in the presence of each carbamate, were withdrawn at selected time intervals and assayed for enzyme activity in order to obtain kinetic data. From the kinetic data, inhibition and bimolecular rate constants were calculated by the equation: [formula]
in which kapp is the pseudo-first-order rate constant.

[5] = 50 μM, 90 min + 30 min pulse, 50 µM

Sequence of acetylcholinesterase (AChE) (O42275 whole entry): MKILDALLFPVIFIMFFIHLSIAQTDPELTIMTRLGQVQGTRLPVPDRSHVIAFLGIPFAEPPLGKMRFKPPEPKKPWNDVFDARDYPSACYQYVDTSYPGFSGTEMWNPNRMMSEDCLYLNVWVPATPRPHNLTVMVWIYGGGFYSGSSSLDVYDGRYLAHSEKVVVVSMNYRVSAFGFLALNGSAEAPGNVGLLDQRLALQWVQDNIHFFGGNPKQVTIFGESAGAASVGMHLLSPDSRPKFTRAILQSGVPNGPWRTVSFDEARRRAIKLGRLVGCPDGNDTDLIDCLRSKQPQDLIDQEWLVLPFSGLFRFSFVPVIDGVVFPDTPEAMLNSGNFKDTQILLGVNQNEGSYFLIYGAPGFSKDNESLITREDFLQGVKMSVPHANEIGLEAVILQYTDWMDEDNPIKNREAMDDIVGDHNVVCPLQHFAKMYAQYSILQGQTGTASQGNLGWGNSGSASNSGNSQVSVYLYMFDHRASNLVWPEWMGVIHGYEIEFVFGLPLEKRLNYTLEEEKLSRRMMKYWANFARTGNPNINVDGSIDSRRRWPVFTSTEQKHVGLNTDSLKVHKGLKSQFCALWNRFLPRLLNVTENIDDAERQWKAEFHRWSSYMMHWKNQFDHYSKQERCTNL

| Molecule | % Inhibition of ACAT ([3]; 50 μM) [%] | % Inhibition of ACAT ([3]; 100 μM) [%] | Ki [4] [µM] | other results |
| --- | --- | --- | --- | --- |
| CC12Oc3cc(-c4cccnc4)oc(=O)c3C=C1CCCC2OC=O (stereo not drawn) [2D & 2E, cis- and trans-3-(3-pyridyl)-5a-methyl-6-formyloxy-1H-5a,6,7,8,9-pentahydro-1-oxopyrano[4,3-b]benzopyran] | – | – | – | inhibition of L1210 cell growth (% reduction of control cell numbers) [1]: cannot inhibit the growth; inhibition of DNA synthesis in L1210 cells ([2]; 25 μM, 90 min + 30 min pulse): no significant effects; inhibition of DNA synthesis in L1210 cells [2, 5]: 49% |
| O=c1occc2nc3c(cc12)CCCC3 [Compound 24, 1H-6,7,8,9-tetrahydro-1-oxopyrano[4,3-b]quinoline] | 1.9 | 3.3 | – | – |
| COc1ccc(-c2cc3c(c(=O)o2)C=C2CCCC(O)C2(C)O3)cc1OC (stereo not drawn) [Compound 3B, cis-3-(3,4-dimethoxyphenyl)-5a-methyl-6-hydroxy-1H-5a,6,7,8,9-pentahydro-1-oxopyrano[4,3-b][1]benzopyran] | – | – | 4 ± 0.6 | – |
| Cc1cc2ncc3c(c2c(=O)o1)CCCC3 [Compound 26, 1H-3-methyl-7,8,9,10-tetrahydropyrano[4,3-c]isoquinolin-1-one] | 2.7 | 13.7 | – | – |
| tri(deacetyl)pyripyropene A [Compound 22] | – | – | – | inhibition of DNA synthesis in L1210 cells ([2]; 25 μM, 90 min + 30 min pulse): no significant effects; inhibition of DNA synthesis in L1210 cells [2, 5]: no effect; also recorded: ineffective; also recorded: fail to inhibit DNA synthesis |
| CCCCC(=O)OCC(C)[C@H]1CCC2C(O)c3c(cc(-c4ccc(OC)c(OC)c4)oc3=O)O[C@H]2C1 (stereo partly drawn) [Compound 37, (5aS,7S)-7-[2-(1-Pentanoyloxypropyl)]-10-hydroxy-3-(3,4-dimethoxyphenyl)-1H-5a,6,7,8,9,9a,10-heptahydro-1-oxopyrano[4,3-b][1]benzopyran] | 36.8 | 52.4 | – | – |
| C=C(C)[C@H]1CCC2=Cc3c(cc(-c4cccnc4)oc3=O)O[C@H]2C1 [Compound 29, (5aS,7S)-7-Isopropenyl-3-(3-pyridyl)-1H-5a,6,7,8,9-pentahydro-1-oxopyrano[4,3-b][1]benzopyran] | 21 | 39 | – | – |
| COc1ccc(-c2cc3c(c(=O)o2)C=C2CCCC(OC=O)C2(C)O3)cc1OC (stereo not drawn) [Compound 3D, cis-3-(3,4-Dimethoxyphenyl)-6-formyloxy-5a-methyl-1H-5a,6,7,8,9-pentahydro-1-oxopyrano[4,3-B][1]benzopyran] | – | – | 15 ± 5.8 | – |
| C=C(C)[C@H]1CCC2=Cc3c(cc(C)oc3=O)O[C@H]2C1 [Compound 28, (5aS,7S)-7-Isopropenyl-3-methyl-1H-5a,6,7,8,9-pentahydro-1-oxopyrano[4,3-b][1]benzopyran] | 17 | 30 | – | – |
| CC12Oc3cc(-c4cccnc4)oc(=O)c3C=C1CCCC2O (stereo not drawn) [2B & 2C, cis- and trans-3-(3-pyridyl)-5a-methyl-6-hydroxy-1H-5a,6,7,8,9-pentahydro-1-oxopyrano[4,3-b]benzopyran] | – | – | – | inhibition of L1210 cell growth (% reduction of control cell numbers) [1]: cannot inhibit the growth |
| CC12Oc3cc(-c4cccnc4)oc(=O)c3C=C1CCCC2OC=O (stereo not drawn) [Compound 2D, cis-3-(3-pyridyl)-5a-methyl-6-formyloxy-1H-5a,6,7,8,9-pentahydro-1-oxopyrano[4,3-b][1]benzopyran] | – | – | 26 ± 2.3 | – |
| CCCCCCCC[C@H](SCCCCCC)C(=O)Nc1c(SC)cc(C)nc1SC [CP-113,818, reference compound] | – | – | – | % Inhibition of ACAT ([3]; 44 nM): 42.5% |
| O=C(CCCCC(=O)Cc1cc2c(c(=O)o1)C=C1CCCCC1O2)Cc1cc2c(c(=O)o1)C=C1CCCCC1O2 (stereo not drawn) [Compound 33, 1,8-Di-{3-[1H-5a,6,7,8,9-pentahydro-1-oxopyrano[4,3-b][I]benzopyranyl]}-2,7-octanedione] | 57 | 76 | – | – |
| C=C(C)[C@H]1CCC2=Cc3c(cc(-c4ccc(OC)c(OC)c4)oc3=O)OC2C1 (stereo partly drawn) [Compound 30, (5aS,7S)-7-Isopropenyl-3-(3,4-dimethoxyphenyl)-1H-5a,6,7,8,9-pentahydro-1-oxopyrano[4,3-b][1]benzopyran] | 13.3 | 21.9 | – | – |
| Cc1cc2c(c(=O)o1)C=C1CCCC(OC=O)C1(C)O2 (stereo not drawn) [Compound 1D, cis-3-5-a-dimethyl-6-formyloxy-1H-5a,6,7,8,9-pentahydro-1-oxopyrano[4,3-b][1]benzopyran] | – | – | 5 ± 1.7 | IC50 ([3]; using literature IC50 of pyripyropene as standard): 52 µM |
| Cc1cc2c(c(=O)o1)C=C1CCCCC1O2 (stereo not drawn) [Compound 1A, 3-methyl-1H-5a,6,7,8,9-pentahydro-1-oxopyrano[4,3-b]-[i]benzopyran] | – | – | 7 ± 1.2 | inhibition at 50 µM ([2]; Mus musculus, L1210, 50 μM, 90 min + 30 min pulse): 17 to 32% |
| O=c1oc(-c2cccnc2)cc2c1[C@@H](O)[C@@]1(O)CCCC[C@@H]1O2 (relative stereo) [Compound 38B, (5aS*,9aR*,10R*)-9a,10-Dihydroxy-3-(3-pyridyl)-1H-5a,6,7,8,9,9a,10-heptahydro-1-oxopyrano[4,3-b][1]benzopyran] | 9.7 | 11.4 | – | – |
| CC12Oc3cc(-c4cccnc4)oc(=O)c3C=C1CCCC2O (stereo not drawn) [Compound 2B, cis-3-(3-pyridyl)-5a-methyl-6-hydroxy-1H-5a,6,7,8,9-pentahydro-1-oxopyrano[4,3-b][1]benzopyran] | – | – | 8 ± 2.3 | – |
| CC[C@@]1(O)C(=O)OCc2c1cc1n(c2=O)Cc2cc3ccccc3nc2-1 [CPT, 20(S)-camptothecin (CPT), reference compound] | – | – | – | reduction of L1210 cell numbers vs control ([1]; 1 day): 46%; reduction of L1210 cell numbers vs control ([1]; 2 days): 85%; reduction of L1210 cell numbers vs control ([1]; 3 days): 97%; reduction of L1210 cell numbers vs control ([1]; 4 days): 99%; IC50 ([2]; Mus musculus, L1210, 2 h, read-out: concentration that inhibits DNA synthesis by 50% (IC50)): ~0.65 µM |
| Cc1cc2c(c(=O)o1)C=C1CCC[C@H](O)[C@@]1(C)O2 [Compound 1B, cis-3-5a-dimethyl-6-hydroxy-1H-5a,6,7,8,9-pentahydro-1-oxopyrano[4,3-b][1]benzopyran] | – | – | 20 ± 5.8 | – |
| O=C(O)Cc1cc2c(c(=O)o1)C=C1CCCCC1O2 (stereo not drawn) [Compound 32, 3-(Carboxymethyl)-1H-5a,6,7,8,9-pentahydro-1-oxopyrano[4,3-b][1]benzopyran] | 10.3 | 7.9 | – | – |
